From PubChem BioAssay (NCI)
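Five concentrations, 48 hours, 96-well plates. GI50 is the concentration that inhibits growth by half. Definition used: TGI = concentration required for complete inhibition of growth.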

Columns and labels:
Assay in all cases: NCI anticancer screen, dose series, 48 h
786-0 renal = test system: 786-0 renal
A498 renal = test system: A498 renal
A549 NSCLC = test system: A549 NSCLC
ACHN renal = test system: ACHN renal
BT-549 breast = test system: BT-549 breast
CAKI-1 renal = test system: CAKI-1 renal
CCRF-CEM leukemia = test system: CCRF-CEM leukemia
COLO 205 colon = test system: COLO 205 colon
DU-145 prostate = test system: DU-145 prostate
EKVX NSCLC = test system: EKVX NSCLC
HCC-2998 colon = test system: HCC-2998 colon
HCT-116 colon = test system: HCT-116 colon
HCT-15 colon = test system: HCT-15 colon
HL-60(TB) leukemia = test system: HL-60(TB) leukemia
HOP-62 NSCLC = test system: HOP-62 NSCLC
HOP-92 NSCLC = test system: HOP-92 NSCLC
HS 578T breast = test system: HS 578T breast
HT29 colon = test system: HT29 colon
IGROV1 ovarian = test system: IGROV1 ovarian
K-562 leukemia = test system: K-562 leukemia
KM12 colon = test system: KM12 colon
LOX IMVI melanoma = test system: LOX IMVI melanoma
M14 melanoma = test system: M14 melanoma
MALME-3M melanoma = test system: MALME-3M melanoma
MCF7 breast = test system: MCF7 breast
MDA-MB-231 breast = test system: MDA-MB-231 breast
MDA-MB-435 = test system: MDA-MB-435
MOLT-4 leukemia = test system: MOLT-4 leukemia
NCI-H226 lung = test system: NCI-H226 lung
NCI-H23 lung = test system: NCI-H23 lung
NCI-H460 lung = test system: NCI-H460 lung
NCI-H522 lung = test system: NCI-H522 lung
NCI/ADR-RES ovarian = test system: NCI/ADR-RES ovarian
OVCAR-3 ovarian = test system: OVCAR-3 ovarian
OVCAR-4 ovarian = test system: OVCAR-4 ovarian
OVCAR-5 ovarian = test system: OVCAR-5 ovarian
OVCAR-8 ovarian = test system: OVCAR-8 ovarian
PC-3 prostate = test system: PC-3 prostate
RPMI-8226 leukemia = test system: RPMI-8226 leukemia
RXF 393 renal = test system: RXF 393 renal
SF-268 CNS = test system: SF-268 CNS
SF-295 CNS = test system: SF-295 CNS
SF-539 CNS = test system: SF-539 CNS
SK-MEL-2 melanoma = test system: SK-MEL-2 melanoma
SK-MEL-28 melanoma = test system: SK-MEL-28 melanoma
SK-MEL-5 melanoma = test system: SK-MEL-5 melanoma
SK-OV-3 ovarian = test system: SK-OV-3 ovarian
SN12C renal = test system: SN12C renal
SNB-19 CNS = test system: SNB-19 CNS
SNB-75 CNS = test system: SNB-75 CNS
SW-620 colon = test system: SW-620 colon
T-47D breast = test system: T-47D breast
TK-10 renal = test system: TK-10 renal
U251 CNS = test system: U251 CNS
UACC-257 melanoma = test system: UACC-257 melanoma
UACC-62 melanoma = test system: UACC-62 melanoma
UO-31 renal = test system: UO-31 renal

CC(=O)/C(=C\c1c(-c2ccccc2)[nH]c2ccccc12)S(C)(=O)=O
GI50 (786-0 renal): 3.44 µM | TGI (786-0 renal): > 35.8 µM | GI50 (A498 renal): 3.88 µM | TGI (A498 renal): > 54.8 µM | GI50 (A549 NSCLC): 7.14 µM | TGI (A549 NSCLC): > 100 µM | GI50 (ACHN renal): 5.64 µM | TGI (ACHN renal): > 100 µM | GI50 (BT-549 breast): 2770 nM | TGI (BT-549 breast): > 100 µM | GI50 (CAKI-1 renal): 5.62 µM | TGI (CAKI-1 renal): > 100 µM | GI50 (CCRF-CEM leukemia): 4.74 µM | TGI (CCRF-CEM leukemia): > 100 µM | GI50 (COLO 205 colon): 2700 nM | TGI (COLO 205 colon): 13.5 µM | GI50 (DU-145 prostate): 3.47 µM | TGI (DU-145 prostate): 15.5 µM | GI50 (EKVX NSCLC): 6.34 µM | TGI (EKVX NSCLC): > 100 µM | GI50 (HCC-2998 colon): 6.61 µM | TGI (HCC-2998 colon): 33.9 µM | GI50 (HCT-116 colon): 2860 nM | TGI (HCT-116 colon): > 100 µM | GI50 (HCT-15 colon): 1930 nM | TGI (HCT-15 colon): > 100 µM | GI50 (HL-60(TB) leukemia): 3.51 µM | TGI (HL-60(TB) leukemia): 20.9 µM | GI50 (HOP-62 NSCLC): 7.95 µM | TGI (HOP-62 NSCLC): > 43.5 µM | GI50 (HOP-92 NSCLC): 3.11 µM | TGI (HOP-92 NSCLC): > 75 µM | GI50 (HS 578T breast): 1550 nM | TGI (HS 578T breast): 4.88 µM | GI50 (HT29 colon): 1600 nM | TGI (HT29 colon): > 40.1 µM | GI50 (IGROV1 ovarian): 6.88 µM | TGI (IGROV1 ovarian): > 54.9 µM | GI50 (K-562 leukemia): 671 nM | TGI (K-562 leukemia): > 100 µM | GI50 (KM12 colon): 2420 nM | TGI (KM12 colon): 19.2 µM | GI50 (LOX IMVI melanoma): 3.36 µM | TGI (LOX IMVI melanoma): > 66.3 µM | GI50 (M14 melanoma): 1640 nM | TGI (M14 melanoma): 5.58 µM | GI50 (MALME-3M melanoma): 4.72 µM | TGI (MALME-3M melanoma): > 100 µM | GI50 (MCF7 breast): 2660 nM | TGI (MCF7 breast): > 100 µM | GI50 (MDA-MB-231 breast): 4.82 µM | TGI (MDA-MB-231 breast): > 73.9 µM | GI50 (MDA-MB-435): 313 nM | TGI (MDA-MB-435): 1970 nM | GI50 (MOLT-4 leukemia): 4.24 µM | TGI (MOLT-4 leukemia): > 100 µM | GI50 (NCI-H226 lung): 13 µM | TGI (NCI-H226 lung): > 100 µM | GI50 (NCI-H23 lung): 4 µM | TGI (NCI-H23 lung): > 100 µM | GI50 (NCI-H460 lung): 2780 nM | TGI (NCI-H460 lung): 10.7 µM | GI50 (NCI-H522 lung): 3.27 µM | TGI (NCI-H522 lung): > 25.7 µM | GI50 (NCI/ADR-RES ovarian): 1800 nM | TGI (NCI/ADR-RES ovarian): 8.97 µM | GI50 (OVCAR-3 ovarian): 2330 nM | TGI (OVCAR-3 ovarian): 5.35 µM | GI50 (OVCAR-4 ovarian): 3.71 µM | TGI (OVCAR-4 ovarian): > 100 µM | GI50 (OVCAR-5 ovarian): 13.9 µM | TGI (OVCAR-5 ovarian): > 100 µM | GI50 (OVCAR-8 ovarian): 5.09 µM | TGI (OVCAR-8 ovarian): > 100 µM | GI50 (PC-3 prostate): 4.46 µM | TGI (PC-3 prostate): > 100 µM | GI50 (RPMI-8226 leukemia): 2950 nM | TGI (RPMI-8226 leukemia): 21.9 µM | GI50 (RXF 393 renal): 2560 nM | TGI (RXF 393 renal): 8.54 µM | GI50 (SF-268 CNS): 4.14 µM | TGI (SF-268 CNS): > 93.9 µM | GI50 (SF-295 CNS): 3.85 µM | TGI (SF-295 CNS): > 61.4 µM | GI50 (SF-539 CNS): 1890 nM | TGI (SF-539 CNS): 4.66 µM | GI50 (SK-MEL-2 melanoma): 5.19 µM | TGI (SK-MEL-2 melanoma): > 24.2 µM | GI50 (SK-MEL-28 melanoma): 3.34 µM | TGI (SK-MEL-28 melanoma): > 100 µM | GI50 (SK-MEL-5 melanoma): 1870 nM | TGI (SK-MEL-5 melanoma): > 43 µM | GI50 (SK-OV-3 ovarian): 3.96 µM | TGI (SK-OV-3 ovarian): > 32.5 µM | GI50 (SN12C renal): 6.06 µM | TGI (SN12C renal): > 100 µM | GI50 (SNB-19 CNS): 3.3 µM | TGI (SNB-19 CNS): > 58.7 µM | GI50 (SNB-75 CNS): 1450 nM | TGI (SNB-75 CNS): 5.2 µM | GI50 (SW-620 colon): 2080 nM | TGI (SW-620 colon): > 100 µM | GI50 (T-47D breast): 2580 nM | TGI (T-47D breast): 26 µM | GI50 (TK-10 renal): 8.21 µM | TGI (TK-10 renal): > 100 µM | GI50 (U251 CNS): 2790 nM | TGI (U251 CNS): > 63 µM | GI50 (UACC-257 melanoma): 24.1 µM | TGI (UACC-257 melanoma): > 100 µM | GI50 (UACC-62 melanoma): 3.17 µM | TGI (UACC-62 melanoma): > 100 µM | GI50 (UO-31 renal): 5.3 µM | TGI (UO-31 renal): > 100 µM
